# Experiments:
# Assay in all cases: relative viability (nuclei count vs DMSO), 5 days (fraction); higher = more cells survive
# Bleomycin + Tozasertib = compound: CC1=C(N=C(N=C1N)[C@H](CC(=O)N)NC[C@@H](C(=O)N)N)C(=O)N[C@@H]([C@H](C2=CN=CN2)OC3C(C(C(C(O3)CO)O)O)OC4C(C(C(C(O4)CO)O)OC(=O)N)O)C(=O)N[C@H](C)[C@H]([C@H](C)C(=O)N[C@@H]([C@@H](C)O)C(=O)NCCC5=NC(=CS5)C6=NC(=CS6)C(=O)NCCC[S+](C)C)O [Bleomycin] + Cc1cc(Nc2cc(N3CCN(C)CC3)nc(Sc3ccc(NC(=O)C4CC4)cc3)n2)n[nH]1 [Tozasertib] (partner 0.1 µM); details: main component drawn
# In short: (§1)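 Cells from lung cancer lines were seeded into 1536-well plates and, one day later, dosed by pin tool. Treatments were either a single drug or a fixed dose of an anchor drug with five library-drug doses (not always all listed) in √10 steps. After 5 days, nuclei were stained in a one-step fixation (final 0.05% Triton X-100, 1% formaldehyde, 1 ug/ml Hoechst) and counted on 4× images, and relative viability is the treated-to-vehicle nuclei ratio, as the median of duplicate plates.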
# Etoposide + Bortezomib = compound: COc1cc([C@@H]2c3cc4c(cc3[C@@H](O[C@@H]3O[C@@H]5CO[C@@H](C)O[C@H]5[C@H](O)[C@H]3O)[C@H]3COC(=O)[C@H]23)OCO4)cc(OC)c1O [Etoposide] + CC(C)C[C@H](NC(=O)[C@H](Cc1ccccc1)NC(=O)c1cnccn1)B(O)O [Bortezomib] (partner 0.002 µM)
# In short: as §1
# Etoposide + Foretinib = compound: COc1cc([C@@H]2c3cc4c(cc3[C@@H](O[C@@H]3O[C@@H]5CO[C@@H](C)O[C@H]5[C@H](O)[C@H]3O)[C@H]3COC(=O)[C@H]23)OCO4)cc(OC)c1O [Etoposide] + COc1cc2c(Oc3ccc(NC(=O)C4(C(=O)Nc5ccc(F)cc5)CC4)cc3F)ccnc2cc1OCCCN1CCOCC1 [Foretinib] (partner 0.25 µM)
# In short: as §1
# Etoposide + Linsitinib = compound: COc1cc([C@@H]2c3cc4c(cc3[C@@H](O[C@@H]3O[C@@H]5CO[C@@H](C)O[C@H]5[C@H](O)[C@H]3O)[C@H]3COC(=O)[C@H]23)OCO4)cc(OC)c1O [Etoposide] + C[C@]1(O)C[C@@H](c2nc(-c3ccc4ccc(-c5ccccc5)nc4c3)c3c(N)nccn32)C1 [Linsitinib] (partner 1 µM)
# In short: as §1
Cell Line,relative viability (Bleomycin + Tozasertib; first compound 0.01 µM),relative viability (Bleomycin + Tozasertib; first compound 0.03162 µM),relative viability (Bleomycin + Tozasertib; first compound 0.1 µM),relative viability (Bleomycin + Tozasertib; first compound 0.3162 µM),relative viability (Bleomycin + Tozasertib; first compound 1 µM),relative viability (Etoposide + Bortezomib; first compound 0.01 µM),relative viability (Etoposide + Bortezomib; first compound 0.03162 µM),relative viability (Etoposide + Bortezomib; first compound 0.1 µM),relative viability (Etoposide + Bortezomib; first compound 0.3162 µM),relative viability (Etoposide + Bortezomib; first compound 1 µM),relative viability (Etoposide + Foretinib; first compound 0.01 µM),relative viability (Etoposide + Foretinib; first compound 0.03162 µM),relative viability (Etoposide + Foretinib; first compound 0.1 µM),relative viability (Etoposide + Foretinib; first compound 0.3162 µM),relative viability (Etoposide + Foretinib; first compound 1 µM),relative viability (Etoposide + Linsitinib; first compound 0.01 µM),relative viability (Etoposide + Linsitinib; first compound 0.03162 µM),relative viability (Etoposide + Linsitinib; first compound 0.1 µM),relative viability (Etoposide + Linsitinib; first compound 0.3162 µM),relative viability (Etoposide + Linsitinib; first compound 1 µM)
NCI-H1437,0.369,0.404,0.369,0.309,0.324,0.378,0.547,0.492,0.243,0.273,1.21,1.2,1.27,0.943,0.44,0.993,1.07,0.984,0.566,0.262
SW 1573,0.141,0.184,0.17,0.129,0.161,1,0.977,0.608,0.449,0.186,0.873,0.931,0.475,0.537,0.278,0.884,0.76,0.646,0.327,0.277
H3255,0.543,0.489,0.622,0.427,0.278,0.831,0.777,0.516,0.591,0.383,0.974,0.897,0.603,0.674,0.457,0.872,1.11,0.815,0.713,0.336
NCI-H2126,0.736,0.865,0.861,0.421,0.32,1.19,1.09,0.801,1,0.659,1.05,1.08,–,0.712,0.394,0.738,0.719,0.457,0.598,0.437
HCC-366,0.0825,0.11,0.0755,0.0502,0.0319,1.04,1.03,0.518,0.135,0.0399,0.961,0.848,0.442,0.12,0.0524,0.474,0.678,0.337,0.166,0.0566
NCI-H838,0.238,0.211,0.178,0.15,0.139,0.641,0.978,0.659,0.624,0.333,0.981,1.03,1.01,0.841,0.35,0.937,0.994,0.902,0.644,0.296
LU99A,0.27,0.25,0.216,0.193,0.147,1.31,1.31,0.661,0.432,0.19,0.911,0.966,0.43,0.466,0.287,0.495,0.614,0.333,0.264,0.201
NCI-H650,0.584,0.627,0.57,0.231,0.188,0.683,0.836,0.63,0.417,0.222,0.961,0.913,0.682,0.606,0.288,0.856,0.809,0.452,0.445,0.187
